This is an account of results in patent publication US20240352022A1, “GROUP OF IMB-C5 SERIES COMPOUNDS HAVING ANTI-CORONAVIRUS ACTIVITY AND APPLICATION THEREOF” (priority 2021, published 2024).

Some results are limits rather than exact numbers.

One may read the EC50 as the concentration needed to bring the measured effect to its halfway point.

In series [1] the test system is HCoV-229E. Kind of series: N protein level of HCoV-229E in Huh7 cells (Western Blotting). In kind it is cell-based, Human coronavirus HCoV-229E. The following applies: 24 h. For orientation: A western blot detects proteins with antibodies after separation by electrophoresis.
Series [2] is described as follows: in vitro. As to conditions: human.
In series [3] the test system is HCoV-229E. Description: anti-HCoV-229E activity in Huh7 cells by cytopathic effect (CPE) assay. The class given is cell-based, Human coronavirus HCoV-229E. The following applies: Human coronavirus 229E, Huh-7, HCoV-229E 100 TCID50 in Huh7 cells, about 48 h. For orientation: Protection from cytopathic effect is a common read-out in antiviral testing.
The subject of series [4] is HCoV-229E. Kind of series: time-of-addition experiment, HCoV-229E in Huh7 cells (Western blotting and immunofluorescence). The class given is cell-based, Human coronavirus HCoV-229E. Further details: dose or concentration left out as unconfirmed.
The subject of series [5] is HCoV-229E. Description: anti-HCoV-229E activity in Huh7.5 cells by cytopathic effect (CPE) assay. In kind it is cell-based, Human coronavirus HCoV-229E. As to conditions: Human coronavirus 229E, HCoV-229E 100 TCID50 in Huh7.5 cells, about 48 h.
Series [6] relates to HCoV-229E. Kind of series: N protein level of HCoV-229E in Huh7.5 cells (Western Blotting). In kind it is cell-based, Human coronavirus HCoV-229E. As to conditions: MOI=1, different concentrations, 24 h.
Series [7] has as its system HCoV-229E. Description: mRNA level of HCoV-229E N protein in Huh7 cells (RT-qPCR). The following applies: MOI=17, IMB-85 3, 0.6 and 0.12 μM, 24 h. In kind it is cell-based, Human coronavirus HCoV-229E. In general terms: In qPCR the cycle at which signal appears reflects the starting amount.
Series [8] concerns HCoV-OC43. Description: N protein level of HCoV-OC43 in C3A cells (Western Blotting). The class given is cell-based, Human coronavirus HCoV-OC43. The following applies: MOI=0.037, IMB-85 10, 2, 0.4 and 0.08 μM, 24 h.
Description: The viral N protein level was determined after 24 h.
The effect of IMB-C5 and IMB-85 on N protein level of coronavirus HCoV-OC43 was determined. C3A cells were infected at a viral load of MOI=0.037, and simultaneously administered with IMB-C5 (10 μM), IMB-85 (10 μM, 2 μ, 0.4 μM and 0.08 μM) and MNP (the positive control, 15 μM). After 24 h, the protein was extracted for Western blotting.
Series [9] relates to HCoV-229E. Kind of series: dsRNA production during replication of HCoV-229E in Huh7 cells (immunofluorescence assay). The following applies: MOI=17, 24 h. The class given is cell-based, Human coronavirus HCoV-229E.
Series [10] is described as follows: CCK-8 cytotoxicity assay in Huh7 cells. In kind it is cell-based. The following applies: human, Huh7 hepatocellular carcinoma cells, CCK-8, 48 hours, read-out: TC50. Here is the method:
(§1) In order to determine the possible cytotoxicity of IMB-C5 and IMB-85, the CCK-8 assay was first used to detect the effect of the two compounds at different concentrations on viability of different cells 48 hours after administration.

A short description of series [11]: CCK-8 cytotoxicity assay in Huh7.5 cells. The class given is cell-based. As to conditions: human, Huh7.5 hepatocellular carcinoma cells, CCK-8, 48 hours, read-out: TC50. Here is the method: as §1
Series [12] is described as follows: in vitro. The following applies: human. This is another data set of the same source.

Consider `Cn1c(=O)c2c(nc(NCCO)n2Cc2cccc(Cl)c2)n(C)c1=O` [IMB-2-5, 7-(3-chlorobenzyl)-8-((2-hydroxyethyl)amino)-1,3-dimethyl-3,7-dihydro-1H-purine-2,6-dione], for which the “N protein level of HCoV-229E” value in series [1] (MOI=1, 5 μM compound) is “inhibited HCoV-229E in Huh7 cells to different degrees”. For the same compound, the CC50 in series [2] came to 200 µM. The EC50 in series [3] worked out at 1.33 µM.
Regarding `Cn1c(=O)c2c(nc(NCCO)n2Cc2ccc(OC(F)F)cc2)n(C)c1=O` [IMB-2-8, 7-(4-(difluoromethoxy)benzyl)-8-((2-hydroxyethyl)amino)-1,3-dimethyl-3,7-dihydro-1H-purine-2,6-dione], in series [1] (MOI=1, 5 μM compound), the “N protein level of HCoV-229E” value was “inhibited HCoV-229E in Huh7 cells to different degrees”. Besides, the CC50 in [2] is > 200 µM. In addition, in [3], the EC50 is 2.47 µM.
For `Cn1c(=O)c2c(nc(NCCO)n2Cc2ccc(Cl)cc2)n(C)c1=O` [IMB-2-14] the same measures were “inhibited HCoV-229E in Huh7 cells to different degrees”, 200 µM and 1.43 µM.
Take `Cn1c(=O)c2c(nc(NCCO)n2CC2CCOCC2)n(C)c1=O` [IMB-3-19, ((2-hydroxyethyl)amino)-1,3-dimethyl-7-((tetrahydro-2H-pyran-4-yl)methyl)-3,7-dihydro-1H-purine-2,6-dione]: the “N protein level of HCoV-229E” value in series [1] (MOI=1, 5 μM compound) is reported as “inhibited HCoV-229E in Huh7 cells to different degrees”. The CC50 in [2] was > 200 µM. This compound returned an EC50 in series [3] of 1.88 µM.
As to `Cc1ccccc1Cn1c(NCCO)nc2c1c(=O)n(C)c(=O)n2C` [IMB-68, 8-((2-hydroxyethyl)amino)-1,3-dimethyl-7-(2-methylbenzyl)-3,7-dihydro-1H-purine-2,6-dione], the “N protein level of HCoV-229E” value in series [1] (MOI=1, 5 μM compound) was “inhibited HCoV-229E in Huh7 cells to different degrees”. In [2], this compound registered a CC50 of 200 µM. Besides, the EC50 in series [3] came to 1.43 µM.
With `CCCCc1ccc(Cn2c(NCCO)nc3c2c(=O)n(C)c(=O)n3C)cc1` [IMB-85, 7-(4-butylbenzyl)-8-((2-hydroxyethyl)amino)-1,3-dimethyl-3,7-dihydro-1H-purine-2,6-dione], the “N protein level of HCoV-229E” value in series [1] (MOI=1, 5 μM compound) is recorded as “best activity in decreasing HCoV-229E N protein level”; in [1] (MOI=1, different concentrations), “decreased the HCoV-229E N protein level in Huh7 cells in a dose-dependent manner”; in series [6], “decreased the HCoV-229E N protein level in Huh7.5 cells in a dose-dependent manner”. The “protein level of HCoV-229E N protein” value in [1] (MOI=17, IMB-85 3, 0.6 and 0.12 μM) is “decreased mRNA and protein level of HCoV-229E N protein in Huh7 cells in a dose-dependent manner”. Besides, the “antiviral effect (N protein and dsRNA level), time of addition” value is recorded as “diminished antiviral effect” in [4] (IMB-85, HCoV-229E MOI=10, administered 6 h or more after infection) and “significant inhibitory effect on virus” in series [4] (IMB-85, HCoV-229E MOI=10, at the time of infection or within 1-5 h after infection). Also, the EC50 in series [5] was 4.05 µM; in [3], 0.09 µM. The “mRNA level of HCoV-229E N protein” value in [7] is “decreased mRNA and protein level of HCoV-229E N protein in Huh7 cells in a dose-dependent manner”. For the same compound, the “N protein level of HCoV-OC43” value in series [8] is recorded as “decreased the HCoV-OC43 N protein level in C3A cells in a dose-dependent manner”. Besides, the “dsRNA production during replication of HCoV-229E” value in series [9] was “inhibited dsRNA production”. For the same compound, the CC50 at 48 h in [10] and in series [11] was > 200 µM in each case.
In the case of `Cn1c(=O)c2c(nc(NCCO)n2Cc2cccc(OC(F)(F)F)c2)n(C)c1=O` [IMB-92, 8-((2-hydroxyethyl)amino)-1,3-dimethyl-7-(3-(trifluoromethoxy)benzyl)-3,7-dihydro-1H-purine-2,6-dione], in series [1] (MOI=1, 5 μM compound), the “N protein level of HCoV-229E” value is “inhibited HCoV-229E in Huh7 cells to different degrees”. The compound further came in with a CC50 in series [2] of 144 µM. This compound also gave an EC50 in series [3] of 0.64 µM.
Turning to `Cn1c(=O)c2c(nc(NCCO)n2Cc2c(F)cccc2F)n(C)c1=O` [IMB-93, 7-(2,6-difluorobenzyl)-8-((2-hydroxyethyl)amino)-1,3-dimethyl-3,7-dihydro-1H-purine-2,6-dione], the “N protein level of HCoV-229E” value in [1] (MOI=1, 5 μM compound) is on record as “inhibited HCoV-229E in Huh7 cells to different degrees”. Further, the CC50 in [2] is > 200 µM. Besides, the midpoint of the response in [3], the EC50, lay at 2.47 µM.
Regarding `COCCNc1nc2c(c(=O)n(C)c(=O)n2C)n1Cc1cccc(OC)c1` [IMB-ZH-10, 7-(3-methoxybenzyl)-8-((2-methoxyethyl)amino)-1,3-dimethyl-3,7-dihydro-1H-purine-2,6-dione], the results for the EC50 in series [5] and in series [3] were 19 µM and 8.6 µM, respectively. The CC50 in series [2] and in series [12] was > 134 µM each time.
In the case of `COc1cccc(Cn2c(NCc3ccc(F)c(C(F)(F)F)c3)nc3c2c(=O)n(C)c(=O)n3C)c1` [IMB-ZH-11, 8-((4-fluoro-3-(trifluoromethyl)benzyl)amino)-7-(3-methoxybenzyl)-1,3-dimethyl-3,7-dihydro-1H-purine-2,6-dione], the EC50 was found to be 26.6 µM in series [5] and 21 µM in series [3]. Moreover, the CC50 in series [2] and in series [12] was > 102 µM throughout.
`COc1cccc(Cn2c(N[C@@H](CO)C(C)C)nc3c2c(=O)n(C)c(=O)n3C)c1` [IMB-ZH-12, (R)-8-((1-hydroxy-3-methylbutan-2-yl)amino)-7-(3-methoxybenzyl)-1,3-dimethyl-3,7-dihydro-1H-purine-2,6-dione]: the EC50 in [5] and in [3] was 59.9 µM in each case. The CC50 in series [2] and in series [12] was > 125 µM throughout.
`Cn1c(=O)c2c(nc(NCCO)n2Cc2cccc(Cl)c2F)n(C)c1=O` [IMB-ZHB-4x, 7-(3-chloro-2-fluorobenzyl)-8-((2-hydroxyethyl)amino)-1,3-dimethyl-3,7-dihydro-1H-purine-2,6-dione]: the results for the EC50 in series [5] and in series [3] were 8.42 µM and 3.78 µM, respectively. For the same compound, the CC50 in series [2] and in [12] was 91 µM each time.
With `Cn1c(=O)c2c(nc(NCCO)n2Cc2ccccc2)n(C)c1=O` [IMB-ZHB-13x, 7-benzyl-8-((2-hydroxyethyl)amino)-1,3-dimethyl-3,7-dihydro-1H-purine-2,6-dione], the EC50 came to 38.5 µM in series [5] and 5.62 µM in series [3]. Besides, the CC50 in series [2] and in series [12] was > 152 µM each time.
Turning to `COC(=O)CNc1nc2c(c(=O)n(C)c(=O)n2C)n1Cc1cccc(OC)c1` [IMB-ZHC-2, methyl(7-(3-methoxybenzyl)-1,3-dimethyl-2,6-dioxo-2,3,6,7-tetrahydro-1H-purin-8-yl)glycinate], the EC50 in series [5] was 43.1 µM; in series [3] it was 28.7 µM. Also, the CC50 in [2] and in [12] was > 129 µM each time.
On to `COc1cccc(Cn2c(NC[C@@H](C)O)nc3c2c(=O)n(C)c(=O)n3C)c1` [IMB-ZHC-6, (R)-8-((2-hydroxypropyl)amino)-7-(3-methoxybenzyl)-1,3-dimethyl-3,7-dihydro-1H-purine-2,6-dione], for which the EC50 in [5] was determined as 58.8 µM; in series [3], 12.6 µM. The CC50 in series [2] and in series [12] was > 134 µM each time.
Consider `COc1cccc(Cn2c(NC[C@H](C)O)nc3c2c(=O)n(C)c(=O)n3C)c1` [IMB-ZHC-7, (S)-8-((2-hydroxypropyl)amino)-7-(3-methoxybenzyl)-1,3-dimethyl-3,7-dihydro-1H-purine-2,6-dione], for which the results for the EC50 in series [5] and in series [3] were 44.7 µM and 19.2 µM, respectively. Moreover, the CC50 in series [2] and in series [12] was > 134 µM each time.
Take `COc1cccc(Cn2c(NCC(N)=O)nc3c2c(=O)n(C)c(=O)n3C)c1` [IMB-ZHC-15, ((7-(3-methoxybenzyl)-1,3-dimethyl-2,6-dioxo-2,3,6,7-tetrahydro-1H-purin-8-yl)amino)acetamide]: the results for the EC50 in series [5] and in series [3] were 58.9 µM and 44.8 µM, respectively. In addition, the CC50 in series [2] and in [12] was > 134 µM in each case.
Take `CC(C)C(=O)OC[C@H]1O[C@@H](n2ccc(NO)nc2=O)[C@H](O)[C@@H]1O` [Molnupiravir, reference compound]: the EC50 in series [5] was 4.28 µM; in series [3], 1.92 µM. Also, the CC50 in series [2] and in series [12] was > 200 µM throughout.
